Values of other authors, collected in US5348946A, “Heteroanthracycline antitumor analogs” (Biochem Immunosystems, Inc., priority 1991, dated 1994).

Details: compared with daunorubicin and doxorubicin; cited from earlier work

Row | Compound | antileukemic activity
1 | CC(=O)[C@@H]1Cc2c(c(O)c3oc4ccccc4c(=O)c3c2O)[C@@H](O[C@H]2C[C@H](N)[C@H](O)[C@H](C)O2)C1 [Compound 3] | antileukemic activity, but lower than that of the parent antibiotics daunorubicin and doxorubicin
2 | CC(=O)[C@]1(O)Cc2c(c(O)c3oc4ccccc4c(=O)c3c2O)[C@@H](O[C@H]2C[C@H](N)[C@H](O)[C@H](C)O2)C1 [Compound 4] | antileukemic activity, but lower than that of the parent antibiotics daunorubicin and doxorubicin
3 | CC(=O)[C@]1(O)Cc2c(c(O)c3oc4ccccc4c(=O)c3c2O)[C@@H](O[C@H]2C[C@H](NC(=O)C(F)(F)F)[C@H](O)[C@H](C)O2)C1 [Compound 5] | antileukemic activity, but lower than that of the parent antibiotics daunorubicin and doxorubicin
